Measurements taken from ChEMBL document CHEMBL5537134, “Targeting the pyruvate dehydrogenase complex/pyruvate dehydrogenase kinase (PDC/PDK) axis to discover potent PDK inhibitors through structure-based virtual screening and pharmacological evaluation” (Eur J Med Chem, 2024).
Activity calls are given as the source filed them. The rule behind the calls is not given here.

Key:
A549 [1] = assay: Induction of apoptosis in human A549 cells assessed as apoptotic cells at 10 uM incubated for 48 hrs by Annexin V-FITC/Propidium Iodide staining based flow cytometry analysis relative to control; format: functional
A549 [2] = assay: Induction of apoptosis in human A549 cells at 20 uM by Annexin V-FITC/Propidium Iodide staining based flow cytometry analysis; format: functional, cell-based; settings: time 12-48 hrs, TDE = time-dependent effect
A549 [3] = assay: Induction of apoptosis in human A549 cells at 20 uM incubated for 12 hrs by Annexin V-FITC/Propidium Iodide staining based flow cytometry analysis relative to control; format: functional
[4] = target: [Pyruvate dehydrogenase (acetyl-transferring)] kinase isozyme 2, mitochondrial (Homo sapiens, UniProt Q15119); assay: Inhibition of recombinant full length human PDK2 (1 to 407 residues) expressed in baculovirus infected Sf9 cells using PDHA1 as substrate incubated for 1 hrs in presence of ATP by ADP-Glo luminescence assay
Cell membrane [5] = assay: Induction of mitochondrial membrane depolarization in human A549 cells assessed as decrease in lactate formation incubated for 8 hrs by NovaBioprofile Flex analyzer method; format: cell membranes; settings: dose 10-40 µM
A549 [6] = assay: Induction of cell cycle arrest in human A549 cells assessed as accumulation of cells at S phase at 7.5 uM incubated for 24 hrs by Propidium Iodide staining based flow cytometry analysis (reference value: 36.92 %); format: functional
[7] = Toxicity in Balb/c mouse assessed as pathological abnormality in liver at 50 mg/kg, ip administered for 7 days by hematoxylin and eosin staining based analysis; format: organism-based; settings: in vivo, 168 h, time 7 day
BEAS-2B = assay: Cytotoxicity against human BEAS-2B cells assessed as reduction in cell viability upto 50 uM incubated for 72 hrs by MTT assay; format: toxicity, cell-based
[8] = Toxicity in Balb/c mouse assessed as pathological abnormality in lung at 50 mg/kg, ip administered for 7 days by hematoxylin and eosin staining based analysis; format: organism-based; settings: in vivo, 168 h, time 7 day
Cell membrane [9] = assay: Induction of mitochondrial membrane depolarization in human A549 cells assessed as increase in green fluorescence intensity at 5 to 20 uM incubated for 4 hrs by JC-1 staining based laser scanning confocal microscope analysis; format: cell membranes; settings: dose 5-20 µM
A549 [10] = assay: cells; settings: Homo sapiens
Description: Anticancer activity against human A549 cells assessed as inhibition of cell growth incubated for 24 to 72 hrs by IncuCyte Zoom live cell imaging analysis

A549 [11] = assay: Anticancer activity against human A549 cells assessed as inhibition of cell growth at 20 uM by IncuCyte Zoom live cell imaging analysis; format: functional, cell-based; settings: time 24-72 hrs, TDE = time-dependent effect
[12] = Toxicity in Balb/c mouse assessed as pathological abnormality in kidney at 50 mg/kg, ip administered for 7 days by hematoxylin and eosin staining based analysis; format: organism-based; settings: in vivo, 168 h, time 7 day
A549 [13] = assay: Induction of apoptosis in human A549 cells assessed as apoptotic cells at 5 uM incubated for 48 hrs by Annexin V-FITC/Propidium Iodide staining based flow cytometry analysis relative to control; format: functional
A549 [14] = assay: Antiproliferative activity against human A549 cells assessed as reduction in cell viability at 40 uM incubated for 72 hrs by MTT assay; format: functional, cell-based
Cell membrane [15] = assay: Induction of mitochondrial membrane depolarization in human A549 cells assessed as decrease in extracellular acidification by Seahorse XFe96 extracellular flux analyzer method; format: cell membranes; settings: dose 10-40 µM
A549 [16] = assay: Induction of cell cycle arrest in human A549 cells assessed as accumulation of cells at G2 phase at 10 uM incubated for 24 hrs by Propidium Iodide staining based flow cytometry analysis (reference value: 13.19 %); format: functional
A549 [17] = assay: Induction of apoptosis in human A549 cells assessed as apoptotic cells at 20 uM incubated for 48 hrs by Annexin V-FITC/Propidium Iodide staining based flow cytometry analysis relative to control; format: functional
A549 [18] = assay: Induction of cell cycle arrest in human A549 cells assessed as accumulation of cells at G2 phase at 7.5 uM incubated for 24 hrs by Propidium Iodide staining based flow cytometry analysis (reference value: 13.19 %); format: functional
Cell membrane [19] = assay: Induction of mitochondrial membrane depolarization in human A549 cells assessed as disappearance of red fluorescence at 5 to 20 uM incubated for 4 hrs by TMRM staining based laser scanning confocal microscope analysis; format: cell membranes; settings: dose 5-20 µM
Cell membrane [20] = assay: Induction of mitochondrial membrane depolarization in human A549 cells assessed as increase in JC-1 monomer incubated for 4 hrs by JC-1 staining based flow cytometry analysis; format: cell membranes; settings: dose 5-20 µM
A549 [21] = assay: Induction of cell cycle arrest in human A549 cells assessed as accumulation of cells at S phase at 10 uM incubated for 24 hrs by Propidium Iodide staining based flow cytometry analysis (reference value: 36.92 %); format: functional
Cell membrane [22] = assay: Induction of mitochondrial membrane depolarization in human A549 cells assessed as increase in oxygen consumption rate by Seahorse XFe96 extracellular flux analyzer method; format: cell membranes; settings: dose 10-40 µM
A549 [23] = assay: Induction of cell cycle arrest in human A549 cells assessed as accumulation of cells at G1 phase at 5 uM incubated for 24 hrs by Propidium Iodide staining based flow cytometry analysis (reference value: 49.88 %); format: functional
A549 [24] = assay: Induction of cell cycle arrest in human A549 cells assessed as accumulation of cells at G2 phase at 5 uM incubated for 24 hrs by Propidium Iodide staining based flow cytometry analysis (reference value: 13.19 %); format: functional
A549 [25] = assay: Induction of cell cycle arrest in human A549 cells assessed as accumulation of cells at S phase at 5 uM incubated for 24 hrs by Propidium Iodide staining based flow cytometry analysis (reference value: 36.92 %); format: functional
A549 [26] = assay: Induction of cell cycle arrest in human A549 cells assessed as accumulation of cells at G1 phase at 7.5 uM incubated for 24 hrs by Propidium Iodide staining based flow cytometry analysis (reference value: 49.88 %); format: functional
[27] = Toxicity in Balb/c mouse assessed as clinical signs at 50 mg/kg, ip administered for 7 days; format: organism-based; settings: in vivo, 168 h, time 7 day
[28] = Toxicity in Balb/c mouse assessed as death at 50 mg/kg, ip administered for 7 days; format: organism-based; settings: in vivo, 168 h, time 7 day
[29] = Toxicity in Balb/c mouse assessed as pathological abnormality in heart at 50 mg/kg, ip administered for 7 days by hematoxylin and eosin staining based analysis; format: organism-based; settings: in vivo, 168 h, time 7 day
A549 [30] = assay: Induction of apoptosis in human A549 cells at 20 uM incubated for 24 hrs by Annexin V-FITC/Propidium Iodide staining based flow cytometry analysis relative to control; format: functional
A549 [31] = assay: Antiproliferative activity against human A549 cells assessed as reduction in cell viability incubated for 72 hrs under hypoxic condition by MTT assay; settings: A549, 72 h
[32] = Toxicity in Balb/c mouse assessed as change in body weight at 50 mg/kg, ip administered for 7 days; format: organism-based; settings: in vivo, 168 h, time 7 day
A549 [33] = assay: Induction of apoptosis in human A549 cells incubated for 48 hrs by Annexin V-FITC/Propidium Iodide staining based flow cytometry analysis; format: functional, cell-based; settings: dose 5-20 µM
A549 [34] = assay: Induction of cell cycle arrest in human A549 cells assessed as accumulation of cells at G1 phase at 10 uM incubated for 24 hrs by Propidium Iodide staining based flow cytometry analysis (reference value: 49.88 %); format: functional
[35] = Toxicity in Balb/c mouse assessed as pathological abnormality in spleen at 50 mg/kg, ip administered for 7 days by hematoxylin and eosin staining based analysis; format: organism-based; settings: in vivo, 168 h, time 7 day
[36] = target: T1, [Pyruvate dehydrogenase (acetyl-transferring)] kinase isozyme 1, mitochondrial (Homo sapiens, UniProt Q15118); assay: Inhibition of recombinant full-length human PDK1 (1 to 436 residues) expressed in baculovirus infected Sf9 insect cells using PDHA1 as substrate at 10 uM incubated for 1 hrs in presence of ATP by Kinase-Glo luminescence assay
T1 sequence (Q15118 whole entry, the tested form may be a part): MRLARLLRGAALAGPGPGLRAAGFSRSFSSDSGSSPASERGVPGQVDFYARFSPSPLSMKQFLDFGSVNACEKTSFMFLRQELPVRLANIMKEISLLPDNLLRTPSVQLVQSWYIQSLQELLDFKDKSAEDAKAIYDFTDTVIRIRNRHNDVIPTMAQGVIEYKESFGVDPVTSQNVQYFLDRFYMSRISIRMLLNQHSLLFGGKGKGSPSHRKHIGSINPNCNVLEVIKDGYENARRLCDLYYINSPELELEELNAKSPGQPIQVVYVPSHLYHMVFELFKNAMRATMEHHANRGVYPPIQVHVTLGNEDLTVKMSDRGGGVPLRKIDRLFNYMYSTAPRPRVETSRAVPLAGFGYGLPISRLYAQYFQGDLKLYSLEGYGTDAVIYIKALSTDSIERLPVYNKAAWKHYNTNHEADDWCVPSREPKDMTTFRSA

A549 [37] = assay: Antiproliferative activity against human A549 cells assessed as reduction in cell viability incubated for 72 hrs by CCK8 assay; format: functional, cell-based; settings: A549, 72 h
[38] = target: T1, [Pyruvate dehydrogenase (acetyl-transferring)] kinase isozyme 1, mitochondrial; assay: Inhibition of 6His-tagged full length PDK1 (unknown origin) expressed in Escherichia coli in presence of ATP by ELISA based kinase activity assay
[39] = target: T1, [Pyruvate dehydrogenase (acetyl-transferring)] kinase isozyme 1, mitochondrial; assay: Binding affinity to PDK1 (unknown origin) assessed as dissociation constant
[40] = target: T1, [Pyruvate dehydrogenase (acetyl-transferring)] kinase isozyme 1, mitochondrial; assay: Binding affinity to PDK1 (unknown origin) assessed as dissociation constant in presence of 5-((4-chlorophenyl)sulfonamido)-N-(2-hydroxyethyl)-2,4-dimethylbenzenesulfonamide
[41] = target: T1, [Pyruvate dehydrogenase (acetyl-transferring)] kinase isozyme 1, mitochondrial; assay: Inhibition of recombinant full-length human PDK1 (1 to 436 residues) expressed in baculovirus infected Sf9 insect cells using PDHA1 as substrate incubated for 1 hrs in presence of ATP by Kinase-Glo luminescence assay
A549 [42] = assay: Anticancer activity against human A549 cells assessed as reduction in cell growth at 20 uM by IncuCyte Zoom live cell imaging analysis; format: functional, cell-based

Question: For Cc1cc(C)c(S(=O)(=O)NCCO)cc1NS(=O)(=O)c1ccc(Cl)cc1, which Activity (A549 [1]) is on record?
Answer: The Activity was 23.8%.

Question: What about the Activity (A549 [2]) of the same compound?
Answer: The Activity was “Tde”.

Question: What about the Activity (A549 [3]) of the same compound?
Answer: Its Activity is 10.8%.

Question: And the IC50 [4]?
Answer: Its IC50 is 136 nM.

Question: And the Activity (Cell membrane [5])?
Answer: Its Activity is “Dose-Dependent Effect”.

Question: What about the Activity (A549 [6]) of the same compound?
Answer: Its Activity is 42.37%.

Question: And the Activity [7]?
Answer: Its Activity is “Non-Toxic”.

Question: And the Activity (BEAS-2B)?
Answer: The Activity was “Non-Toxic”.

Question: What about the Activity [8] of the same compound?
Answer: The Activity was “Non-Toxic”.

Question: And the Activity (Cell membrane [9])?
Answer: Its Activity is “Active”.

Question: What about the EC50 (A549 [10]) of the same compound?
Answer: Its EC50 is 10700 nM.

Question: What about the Activity (A549 [11]) of the same compound?
Answer: Its Activity is “Tde”.

Question: And the Activity [12]?
Answer: Its Activity is “Non-Toxic”.

Question: What about the Activity (A549 [13]) of the same compound?
Answer: Its Activity is 8.8%.

Question: And the Activity (A549 [14])?
Answer: The Activity was “Active”.

Question: And the Activity (Cell membrane [15])?
Answer: The Activity was “Dose-Dependent Effect”.

Question: And the Activity (A549 [16])?
Answer: Its Activity is 1.58%.

Question: And the Activity (A549 [17])?
Answer: Its Activity is 80.5%.

Question: And the Activity (A549 [18])?
Answer: The Activity was 7.98%.

Question: And the Activity (Cell membrane [19])?
Answer: Its Activity is “Active”.

Question: What about the Activity (Cell membrane [20]) of the same compound?
Answer: The Activity was “Dose-Dependent Effect”.

Question: And the Activity (A549 [21])?
Answer: Its Activity is 50.66%.

Question: What about the Activity (Cell membrane [22]) of the same compound?
Answer: The Activity was “Dose-Dependent Effect”.

Question: And the Activity (A549 [23])?
Answer: The Activity was 55.25%.

Question: And the Activity (A549 [24])?
Answer: The Activity was 12.31%.

Question: What about the Activity (A549 [25]) of the same compound?
Answer: Its Activity is 32.44%.

Question: And the Activity (A549 [26])?
Answer: The Activity was 49.65%.

Question: And the Activity [27]?
Answer: The Activity was “Non-Toxic”.

Question: What about the Activity [28] of the same compound?
Answer: The Activity was “Non-Toxic”.

Question: What about the Activity [29] of the same compound?
Answer: Its Activity is “Non-Toxic”.

Question: What about the Activity (A549 [30]) of the same compound?
Answer: Its Activity is 60%.

Question: What about the IC50 (A549 [31]) of the same compound?
Answer: Its IC50 is 5670 nM.

Question: What about the Activity [32] of the same compound?
Answer: Its Activity is “Non-Toxic”.

Question: What about the Activity (A549 [33]) of the same compound?
Answer: The Activity was “Dose-Dependent Effect”.

Question: What about the Activity (A549 [34]) of the same compound?
Answer: The Activity was 47.77%.

Question: And the Activity [35]?
Answer: Its Activity is “Non-Toxic”.

Question: With CC(C)[C@H](NC(=O)N1CCN(C(c2ccc(F)cc2)c2ccc(F)cc2)CC1)C(=O)O as the compound, how does the Activity (A549 [14]) read?
Answer: The Activity was “Active”.

Question: With O=C(c1cccc(S(=O)(=O)Nc2cc(Cl)ccc2Cl)c1)N1CCN(CCO)CC1 as the compound, how does the inhibition [36] read?
Answer: The inhibition was “Active”.

Question: With S=C(SSC(=S)N1CCOCC1)N1CCOCC1 as the compound, how does the IC50 (A549 [37]) read?
Answer: The IC50 was < 500 nM.

Question: What about the EC50 [38] of the same compound?
Answer: The EC50 was 49 nM.

Question: Which IC50 [4] does the source give for CN(C)C(=O)c1ccc(S(=O)(=O)c2ccc(NC(=O)[C@@](C)(O)C(F)(F)F)c(Cl)c2)cc1 here?
Answer: Its IC50 is 74.5 nM.

Question: What about the Kd [39] of the same compound?
Answer: Its Kd is 148 nM.

Question: What about the Kd [40] of the same compound?
Answer: The Kd was 8900 nM.

Question: And the Activity (A549 [16])?
Answer: Its Activity is 13.47%.

Question: What about the Activity (A549 [21]) of the same compound?
Answer: The Activity was 18.03%.

Question: And the IC50 [41]?
Answer: Its IC50 is 32.3 nM.

Question: What about the Activity (A549 [42]) of the same compound?
Answer: The Activity was “inactive”.

Question: What about the Activity (A549 [34]) of the same compound?
Answer: Its Activity is 68.5%.
